Data from US6232318A, “Pyrimidinedione derivatives useful as alpha 1A adrenoceptor antagonists” (Merck & Co., Ltd., priority 1999, dated 2001).

Experiments:
[1] = test system: human alpha 1d and alpha 1b adrenergic receptors; experiment: Selective binding assays: alpha 1d and alpha 1b membranes ([125I]-HEAT competition), compared with alpha 1a; conditions: alpha 1a vs alpha 1b and alpha 1d, ratio
Protocol: Membranes prepared from stably transfected human alpha 1d and alpha 1b cell lines (ATCC CRL 11138 and CRL 11139, respectively) were used to identify compounds that selectively bind to the human alpha 1a adrenergic receptor. These competition binding reactions (total volume=200 μl) contained 50 mM Tris-HCl pH. 7.4, 5 mM EDTA, 150 mM NaCl, 100 pM [^125 I]-HEAT, membranes prepared from cell lines transfected with the respective alpha 1 subtype expression plasmid and increasing amounts of unlabeled ligand. Reactions were incubated at room temperature for one hour with shaking. Reactions were filtered onto Whatman GF/C glass fiber filters with a Inotec 96 well cell harvester. Filters were washed three times with ice cold buffer and bound radioactivity was determined (Ki).

[2] = biological target: T1, human alpha 1a adrenergic receptor (Homo sapiens, UniProt P35348); experiment: Screening assay: alpha 1a adrenergic receptor binding ([125I]-HEAT competition, membranes of stably transfected cell line)
T1 sequence (P35348 1-466): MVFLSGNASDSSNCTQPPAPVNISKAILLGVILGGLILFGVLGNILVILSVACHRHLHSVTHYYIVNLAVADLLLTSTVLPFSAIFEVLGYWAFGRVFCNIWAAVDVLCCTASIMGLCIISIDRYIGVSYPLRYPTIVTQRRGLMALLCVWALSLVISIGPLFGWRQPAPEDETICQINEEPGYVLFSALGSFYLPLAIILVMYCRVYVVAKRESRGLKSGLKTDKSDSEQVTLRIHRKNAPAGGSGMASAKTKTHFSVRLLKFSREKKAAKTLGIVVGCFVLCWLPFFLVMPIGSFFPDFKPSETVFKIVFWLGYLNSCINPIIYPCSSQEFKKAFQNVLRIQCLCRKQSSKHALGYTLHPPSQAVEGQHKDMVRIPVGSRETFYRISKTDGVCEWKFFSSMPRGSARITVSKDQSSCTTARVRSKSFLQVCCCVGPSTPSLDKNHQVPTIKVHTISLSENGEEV
Protocol: Screening Assay: Alpha 1a Adrenergic Receptor Binding
Membranes prepared from the stably transfected human alpha 1a cell line (ATCC CRL 11140) were used to identify compounds that bind to the human alpha 1a adrenergic receptor. These competition binding reactions (total volume=200 μl) contained 50 mM Tris-HCl pH. 7.4, 5 mM EDTA, 150 mM NaCl, 100 pM [^125 I]-HEAT, membranes prepared from the alpha 1a cell line and increasing amounts of unlabeled ligand. Reactions were incubated at room temperature for one hour with shaking. Reactions were filtered onto Whatman GF/C glass fiber filters with a Inotec 96 well cell harvester. Filters were washed three times with ice cold buffer and bound radioactivity was determined (Ki).

Row | Compound | selectivity in binding to alpha 1a receptors versus binding to alpha 1b and alpha 1d receptors [1] | Ki ([2]; room temperature, 1 h, pH 7.4) | Ki ([2]; value in mM)
1 | Cc1c[nH]c(=O)n(CCCN[C@H]2CC[C@@](C#N)(c3ccccc3)CC2)c1=O [Example 21, trans-4-[3-(5-Methyl-2,6-dioxo-3,6-dihydro-2H-pyrimidin-1-yl)propylamino]-1-phenylcyclohexanecarbonitrile] | ≤ 10 fold | 0.000755 mM | –
2 | Cc1cn(Cc2ccccc2)c(=O)n(CCCN[C@H]2CC[C@](C#N)(c3ccc(F)cc3F)CC2)c1=O [Example 4, cis-4-[3-(3-Benzyl-5-methyl-2,6-dioxo-3,6-dihydro-2H-pyrimidin-1-yl)propylamino]-1-(2,4-difluorophenyl)cyclohexanecarbonitrile] | ≤ 10 fold | – | –
3 | Cc1cn(CCCN[C@H]2CC[C@](C#N)(c3ccccc3C#N)CC2)c(=O)n(Cc2ccccc2)c1=O [Example 26, trans-2-{4-[3-(3-Benzyl-5-methyl-2,4-dioxo-3,4-dihydro-2H-pyrimidin-1-yl)propylamino]-1-cyanocyclohexyl}benzonitrile] | ≤ 10 fold | 0.00079 mM | –
4 | Cc1cn(Cc2ccccc2)c(=O)n(CCCN[C@H]2CC[C@@](C#N)(c3ccccc3)CC2)c1=O [Example 6, trans-4-[3-(3-Benzyl-5-methyl-2,6-dioxo-3,6-dihydro-2H-pyrimidin-1-yl)propylamino]-1-phenylcyclohexanecarbonitrile] | ≤ 10 fold | 0.0005 mM | –
5 | Cc1c[nH]c(=O)n(CCCN[C@H]2CC[C@](C#N)(c3ccccc3)CC2)c1=O [Example 20, cis4-[3-(5-Methyl-2,6-dioxo-3,6-dihydro-2H-pyrimidin-1-yl)propylamino]-1-phenylcyclohexanecarbonitrile] | ≤ 10 fold | – | –
6 | Cc1ccccc1C1(C#N)CCN(CCCn2c(=O)c(C)cn(Cc3ccccc3)c2=O)CC1 [Example 2, 1-[3-(3-Benzyl-5-methyl-2,6-dioxo-3,6-dihydro-2H-pyrimidin-1-yl)propyl]-4-ortho-tolylpiperidine-4-carbonitrile] | ≤ 10 fold | – | –
7 | Cc1cn(Cc2ccccc2)c(=O)n(CCCN[C@H]2CC[C@@](C#N)(c3cc(F)cc(F)c3)CC2)c1=O [Example 9, cis-4-[3-(3-Benzyl-5-methyl-2,6-dioxo-3,6-dihydro-2H-pyrimidin-1-yl)propylamino]-1-(3,5-difluorophenyl)cyclohexanecarbonitrile] | ≤ 10 fold | – | 0.000115 mM
8 | COc1ccccc1[C@H]1CC[C@H](NCCCn2c(=O)c(C)cn(Cc3ccccc3)c2=O)CC1 [Example 17, trans-1-Benzyl-3-{3-[4-(2-methoxyphenyl)cyclohexylamino]propyl}-5-methyl-1H-pyrimidine-2,4-dione] | ≤ 10 fold | – | –
9 | Cc1cn(Cc2ccccc2)c(=O)n(CCCN2CCC(c3ccc(F)cc3)CC2)c1=O [Example 1, 1-Benzyl-3-{3-[4-(4-fluorophenyl)piperidin-1-yl]propyl}-5-methyl-1H-pyrimidine-2,4-dione] | ≤ 10 fold | – | –
